Assay results as given in ChEMBL document CHEMBL6109156, “Discovery of Dual PD-L1/HDAC3 Inhibitors for Tumor Immunotherapy” (J Med Chem, 2025).
Active and inactive are the calls of the source. The rule behind the calls is not given here.

Tests used:
Histone deacetylase 3 [1] = biological target: T1, Histone deacetylase 3 (Homo sapiens, UniProt O15379); test: Inhibition of human recombinant HDAC3 using Ac-Leu-Gly-Lys (Ac)-AMC as substrate at 0.1 uM preincubated for 10 mins followed by substrate addition and measured after 45 mins by TECAN microtiter plate reader analysis relative to control; settings: time 55.0 min
[2] = biological target: T2, Programmed cell death protein 1/Programmed cell death 1 ligand 1 (Homo sapiens) (UniProt Q15116+Q9NZQ7); test: (§1) Inhibition of PD-1/PD-L1 (unknown origin) interaction assessed as inhibition rate at 1 uM by HTRF assay relative to control; format: protein-complex assay
[3] = biological target: Programmed cell death protein 1/Programmed cell death 1 ligand 1 (Homo sapiens, UniProt Q9NZQ7); test: as §1; format: protein-complex assay
Histone deacetylase 8 = biological target: T3, Histone deacetylase 8 (Homo sapiens, UniProt Q9BY41); test: Inhibition of human recombinant HDAC8 using Ac-Leu-Gly-Lys (Tfa)-AMC as substrate preincubated for 10 mins followed by substrate addition and measured after 45 mins by TECAN microtiter plate reader analysis
T3 sequence (Q9BY41 whole entry): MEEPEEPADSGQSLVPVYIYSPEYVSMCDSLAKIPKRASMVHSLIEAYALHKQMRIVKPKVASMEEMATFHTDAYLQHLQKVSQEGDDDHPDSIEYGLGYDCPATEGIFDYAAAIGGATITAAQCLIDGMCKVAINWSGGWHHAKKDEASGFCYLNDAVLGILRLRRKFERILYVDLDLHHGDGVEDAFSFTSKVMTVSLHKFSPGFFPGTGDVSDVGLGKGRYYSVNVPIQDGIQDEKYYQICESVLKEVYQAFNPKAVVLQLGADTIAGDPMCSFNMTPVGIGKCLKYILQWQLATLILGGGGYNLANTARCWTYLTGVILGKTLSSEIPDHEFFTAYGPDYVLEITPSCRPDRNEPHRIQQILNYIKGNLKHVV

Histone deacetylase 3 [4] = biological target: T1, Histone deacetylase 3; test: Inhibition of human recombinant HDAC3 using Ac-Leu-Gly-Lys (Ac)-AMC as substrate preincubated for 10 mins followed by substrate addition and measured after 45 mins by TECAN microtiter plate reader analysis
Histone deacetylase 3 [5] = biological target: T1, Histone deacetylase 3; test: Inhibition of human recombinant HDAC3 using Ac-Leu-Gly-Lys (Ac)-AMC as substrate at 1 uM preincubated for 10 mins followed by substrate addition and measured after 45 mins by TECAN microtiter plate reader analysis relative to control; settings: time 55.0 min
[6] = biological target: T2, Programmed cell death protein 1/Programmed cell death 1 ligand 1 (Homo sapiens); test: Inhibition of PD-1/PD-L1 (unknown origin) interaction assessed as inhibition rate at 0.1 uM by HTRF assay relative to control; format: protein-complex assay
Histone deacetylase 1 = Histone deacetylase 1 (Homo sapiens, UniProt Q13547); test: Inhibition of human recombinant HDAC1 using Ac-Leu-Gly-Lys (Ac)-AMC as substrate preincubated for 10 mins followed by substrate addition and measured after 45 mins by TECAN microtiter plate reader analysis
[7] = biological target: T4, Protein deacetylase HDAC6 (Homo sapiens, UniProt Q9UBN7); test: Inhibition of human recombinant HDAC6 using Ac-Leu-Gly-Lys (Ac)-AMC as substrate preincubated for 10 mins followed by substrate addition and measured after 45 mins by TECAN microtiter plate reader analysis
T4 sequence (Q9UBN7 whole entry): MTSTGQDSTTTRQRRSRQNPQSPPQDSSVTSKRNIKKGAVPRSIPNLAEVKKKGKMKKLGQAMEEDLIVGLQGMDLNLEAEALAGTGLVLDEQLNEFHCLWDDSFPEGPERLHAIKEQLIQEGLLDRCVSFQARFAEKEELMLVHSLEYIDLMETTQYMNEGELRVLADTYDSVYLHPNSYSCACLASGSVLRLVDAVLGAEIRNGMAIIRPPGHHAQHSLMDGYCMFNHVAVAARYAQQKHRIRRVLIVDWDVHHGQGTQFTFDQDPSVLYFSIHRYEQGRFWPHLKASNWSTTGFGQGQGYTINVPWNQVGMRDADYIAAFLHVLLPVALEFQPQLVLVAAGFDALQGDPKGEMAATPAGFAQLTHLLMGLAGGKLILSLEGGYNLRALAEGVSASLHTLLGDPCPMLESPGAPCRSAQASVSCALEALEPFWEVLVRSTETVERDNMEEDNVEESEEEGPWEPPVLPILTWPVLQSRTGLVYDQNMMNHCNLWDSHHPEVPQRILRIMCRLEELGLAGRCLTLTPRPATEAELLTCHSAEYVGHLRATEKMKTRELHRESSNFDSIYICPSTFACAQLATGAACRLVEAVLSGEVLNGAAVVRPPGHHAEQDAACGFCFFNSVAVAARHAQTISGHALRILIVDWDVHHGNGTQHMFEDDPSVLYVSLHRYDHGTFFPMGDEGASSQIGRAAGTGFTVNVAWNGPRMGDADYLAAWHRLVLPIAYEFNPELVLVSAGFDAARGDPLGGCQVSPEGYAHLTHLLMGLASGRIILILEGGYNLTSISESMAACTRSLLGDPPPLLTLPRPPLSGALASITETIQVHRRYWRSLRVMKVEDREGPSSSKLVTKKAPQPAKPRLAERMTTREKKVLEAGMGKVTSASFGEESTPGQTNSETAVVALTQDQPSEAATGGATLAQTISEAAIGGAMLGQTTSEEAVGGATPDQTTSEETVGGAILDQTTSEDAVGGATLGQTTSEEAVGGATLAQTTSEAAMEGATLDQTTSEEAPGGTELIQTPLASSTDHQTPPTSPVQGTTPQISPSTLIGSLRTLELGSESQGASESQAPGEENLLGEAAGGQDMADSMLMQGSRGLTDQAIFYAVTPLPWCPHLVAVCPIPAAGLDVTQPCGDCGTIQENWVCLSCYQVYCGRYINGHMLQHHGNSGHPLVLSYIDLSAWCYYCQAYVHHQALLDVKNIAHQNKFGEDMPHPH

MDA-MB-231 = test: Antiproliferative activity against human MDA-MB-231 cells assessed as cell growth inhibition incubated for 48 hrs by MTT assay; format: functional, cell-based; settings: MDA-MB-231, 48 h
B16-F10 [8] = test: Induction of cell cycle arrest in mouse B16-F10 cells assessed as accumulation of cells at S phase at 4 uM incubated for 48 hrs by PI staining based flow cytometry analysis (reference value: 24.04%); format: functional
B16-F10 [9] = test: Immunomodulatory activity in mouse B16-F10 cells implanted in C57BL/6J mouse assessed as percentage of CD3 positive CD4 positive cells in tumor at 10 mg/kg, ip administered once daily for 9 days in presence of NP19 by flow cytometric analysis (reference value: 0.20 %); format: functional; settings: time 9 day
B16-F10 [10] = test: Induction of apoptosis in mouse B16-F10 cells assessed as viable cells at 4 uM incubated for 48 hrs by Annexin V-FITC/PI staining based flow cytometry analysis (reference value: 92.3%); format: functional; settings: read-out: Activity
B16-F10 [11] = test: Induction of apoptosis in mouse B16-F10 cells assessed as early apoptotic cells at 4 uM incubated for 48 hrs by Annexin V-FITC/PI staining based flow cytometry analysis (reference value: 0.45 %); format: functional
B16-F10 [12] = test: Immunomodulatory activity in mouse B16-F10 cells implanted in C57BL/6J mouse assessed as percentage of CD3 positive CD8 positive cells in tumor at 10 mg/kg, ip administered once daily for 9 days in presence of NP19 by flow cytometric analysis (reference value: 0.44 %); format: functional; settings: time 9 day
HepG2 = test: Antiproliferative activity against human HepG2 cells assessed as cell growth inhibition incubated for 48 hrs by MTT assay; format: functional, cell-based; settings: HepG2, 48 h
B16-F10 [13] = test: Induction of cell cycle arrest in mouse B16-F10 cells assessed as accumulation of cells at G2/M phase at 4 uM incubated for 48 hrs by PI staining based flow cytometry analysis (reference value: 5.87%); format: functional
B16-F10 [14] = test: Induction of cell cycle arrest in mouse B16-F10 cells assessed as accumulation of cells at G0/G1 phase at 4 uM incubated for 48 hrs by PI staining based flow cytometry analysis (reference value: 70.09%); format: functional
B16-F10 [15] = test: Antitumor activity against mouse B16-F10 cells implanted in C57BL/6J mouse assessed as tumor growth inhibition at 20 mg/kg, ip administered once daily for 9 days in presence of NP19; format: functional; settings: B16-F10, 216 h, time 9 day, read-out: TGI
B16-F10 [16] = test: Induction of apoptosis in mouse B16-F10 cells assessed as late apoptotic cells at 4 uM incubated for 48 hrs by Annexin V-FITC/PI staining based flow cytometry analysis (reference value: 5.02 %); format: functional
HCT-116 = test: Antiproliferative activity against human HCT-116 cells assessed as cell growth inhibition incubated for 48 hrs by MTT assay; format: functional, cell-based; settings: HCT-116, 48 h
B16-F10 [17] = test: Induction of apoptosis in mouse B16-F10 cells assessed as necrotic cells at 4 uM incubated for 48 hrs by Annexin V-FITC/PI staining based flow cytometry analysis (reference value: 2.24%); format: functional
A-375 = test: Antiproliferative activity against human A-375 cells assessed as cell growth inhibition incubated for 48 hrs by MTT assay; format: functional, cell-based; settings: A-375, 48 h
4T1 = test: Antiproliferative activity against mouse 4T1 cells assessed as cell growth inhibition incubated for 48 hrs by MTT assay; format: functional, cell-based; settings: 4T1, 48 h
B16-F10 [18] = test: Antiproliferative activity against mouse B16-F10 cells assessed as cell growth inhibition incubated for 48 hrs by MTT assay; format: functional, cell-based; settings: B16-F10, 48 h
[19] = biological target: T5, Histone deacetylase 3 (Mus musculus) (UniProt O88895); test: Inhibition of HDAC3 in mouse B16-F10 cells assessed as upregulation of Ac-H3 level at 3 uM incubated for 24 hrs by Western blotting analysis; format: cell-based
T5 sequence (whole entry): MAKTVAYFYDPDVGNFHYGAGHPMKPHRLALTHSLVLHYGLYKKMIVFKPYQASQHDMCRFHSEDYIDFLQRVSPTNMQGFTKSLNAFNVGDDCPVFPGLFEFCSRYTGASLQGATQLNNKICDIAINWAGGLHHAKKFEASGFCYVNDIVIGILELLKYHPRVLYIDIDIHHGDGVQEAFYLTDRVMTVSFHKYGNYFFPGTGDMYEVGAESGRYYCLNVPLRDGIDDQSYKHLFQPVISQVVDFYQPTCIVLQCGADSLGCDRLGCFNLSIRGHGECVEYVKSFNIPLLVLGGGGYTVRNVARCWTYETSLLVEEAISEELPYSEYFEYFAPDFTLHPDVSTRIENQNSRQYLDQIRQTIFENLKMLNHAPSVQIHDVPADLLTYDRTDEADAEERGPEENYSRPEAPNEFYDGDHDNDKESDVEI

Sequence of Histone deacetylase 1 (Q13547 whole entry): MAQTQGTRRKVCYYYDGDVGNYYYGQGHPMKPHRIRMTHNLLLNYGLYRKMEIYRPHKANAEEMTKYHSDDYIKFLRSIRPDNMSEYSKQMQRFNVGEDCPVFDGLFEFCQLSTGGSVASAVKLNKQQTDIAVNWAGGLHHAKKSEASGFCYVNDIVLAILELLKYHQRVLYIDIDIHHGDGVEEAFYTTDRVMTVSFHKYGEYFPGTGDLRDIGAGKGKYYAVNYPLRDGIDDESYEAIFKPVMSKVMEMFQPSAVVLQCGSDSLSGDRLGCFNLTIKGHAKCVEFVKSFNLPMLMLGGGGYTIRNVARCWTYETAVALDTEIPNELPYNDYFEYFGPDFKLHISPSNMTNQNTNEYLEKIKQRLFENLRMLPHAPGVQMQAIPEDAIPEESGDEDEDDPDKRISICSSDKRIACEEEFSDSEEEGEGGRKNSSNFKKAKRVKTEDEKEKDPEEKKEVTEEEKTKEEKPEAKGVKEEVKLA
T1 sequence (O15379 whole entry): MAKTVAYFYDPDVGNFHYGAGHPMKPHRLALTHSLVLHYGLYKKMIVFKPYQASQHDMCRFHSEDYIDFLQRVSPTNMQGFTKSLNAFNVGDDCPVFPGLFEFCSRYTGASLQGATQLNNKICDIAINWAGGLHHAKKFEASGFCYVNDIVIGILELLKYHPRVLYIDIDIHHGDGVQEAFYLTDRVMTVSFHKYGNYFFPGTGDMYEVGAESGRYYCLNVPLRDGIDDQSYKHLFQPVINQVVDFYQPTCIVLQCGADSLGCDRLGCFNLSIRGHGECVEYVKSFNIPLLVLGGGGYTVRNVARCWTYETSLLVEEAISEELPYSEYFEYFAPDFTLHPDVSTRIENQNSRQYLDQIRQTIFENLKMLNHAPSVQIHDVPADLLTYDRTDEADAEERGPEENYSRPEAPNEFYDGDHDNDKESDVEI
Sequence of Programmed cell death protein 1/Programmed cell death 1 ligand 1 (Q15116 whole entry): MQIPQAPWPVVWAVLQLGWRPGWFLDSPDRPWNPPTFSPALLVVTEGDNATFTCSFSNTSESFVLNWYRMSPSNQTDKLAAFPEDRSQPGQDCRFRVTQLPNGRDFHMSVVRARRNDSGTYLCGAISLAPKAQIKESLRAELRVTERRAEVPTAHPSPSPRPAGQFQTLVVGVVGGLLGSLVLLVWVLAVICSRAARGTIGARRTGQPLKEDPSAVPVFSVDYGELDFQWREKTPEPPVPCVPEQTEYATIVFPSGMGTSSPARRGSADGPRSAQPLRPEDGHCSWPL
Sequence of Programmed cell death protein 1/Programmed cell death 1 ligand 1 (Q9NZQ7 whole entry): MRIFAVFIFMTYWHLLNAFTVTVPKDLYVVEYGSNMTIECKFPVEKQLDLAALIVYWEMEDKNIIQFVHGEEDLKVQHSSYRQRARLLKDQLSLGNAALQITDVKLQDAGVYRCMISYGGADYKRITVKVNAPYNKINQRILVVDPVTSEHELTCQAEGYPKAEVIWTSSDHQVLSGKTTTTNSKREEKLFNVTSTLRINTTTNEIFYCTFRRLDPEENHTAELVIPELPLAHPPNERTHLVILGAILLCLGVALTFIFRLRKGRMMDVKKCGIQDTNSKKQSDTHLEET

SMILES | inhibition (Histone deacetylase 3 [1]) | inhibition [2] | IC50 [3] | IC50 (Histone deacetylase 8) | IC50 (Histone deacetylase 3 [4]) | inhibition (Histone deacetylase 3 [5]) | inhibition [6] | IC50 (Histone deacetylase 1) | IC50 [7] | IC50 (MDA-MB-231) | IC50 (HepG2) | IC50 (HCT-116) | IC50 (A-375) | also measured
CCCNNC(=O)CCCCCNCc1ccc(-c2cccc(-c3ccccc3)c2C)nc1OC | 53.6% | 92.7% | 0.213 µM | > 10 µM | 0.106 µM | 82% | 37.3% | 0.535 µM | > 10 µM |  |  |  |  | 
CCCNNC(=O)CCCCNCc1ccc(-c2cccc(-c3ccccc3)c2C)nc1OC | 41.9% | 92.5% | 0.0716 µM | > 10 µM | 0.111 µM | 79.4% | 54.4% | 0.459 µM | > 10 µM |  |  |  |  | 
Nc1ccccc1NC(=O)c1ccc(CNC(=O)OCc2cccnc2)cc1 [ENTINOSTAT] |  |  | > 10 µM |  |  |  |  |  |  | 30.3 µM | 6.32 µM | 3.54 µM | 4.91 µM | Activity (B16-F10 [8]): 5.79%; Activity (B16-F10 [9]): 1.89%; viability at 4 µM (B16-F10 [10]): 74.5%; Activity (B16-F10 [11]): 7.43%; Activity (B16-F10 [12]): 3.34%; Activity (B16-F10 [13]): 6.59%; Activity (B16-F10 [14]): 87.62%; inhibition in vivo at 20 mg/kg (B16-F10 [15]): 37%; Activity (B16-F10 [16]): 12.8%; Activity (B16-F10 [17]): 5.25%
CCCNNC(=O)c1cnc(NCCNCc2ccc(-c3cccc(-c4ccccc4)c3C)nc2OC)cn1 | 40.2% | 94.4% | 0.0649 µM | > 10 µM | 0.168 µM | 79.7% | 46% | 2.15 µM | > 10 µM | 13.9 µM | 7.01 µM | 14.7 µM | 10.2 µM | IC50 (4T1): 7.48 µM; IC50 (B16-F10 [18]): 6.93 µM; inhibition [19]: Active
